Reference: patent US8093272B2 (priority 2004, dated 2012)

Assays:
[1] = test system: NA-uptake; experiment: Measurement of noradrenalin re-uptake in rat brain synaptosomes (P2 fraction, hypothalamus); assay type: biochemical; conditions: synaptosomes from hypothalamus of male rats' brains
Procedure: Measurement of Noradrenalin Re-Uptake
In order to carry out these in vitro studies, synaptosomes were freshly isolated from rat brain areas. In each case, what is known as a “P2” fraction, which was prepared in accordance with Gray and Whittaker's directions (E. G. Gray and V. P. Whittaker (1962) J. Anat. 76, 79-88), was used. For the NA-uptake, uptake these vesicular particles were isolated from the hypothalamus of male rats' brains.
A detailed description of the method can be found in the literature (M. Ch. Frink, H.-H. Hennies, W. Englberger, M. Haurand and B. Wilffert (1996) Atzneim.-Forsch./Drug Res. 46 (III), 11, 1029-1036).

[2] = test system: 5-HT-uptake; experiment: Measurement of serotonin re-uptake in rat brain synaptosomes (P2 fraction, medulla+pons region); assay type: biochemical; conditions: synaptosomes from medulla+pons region of male rats' brains
Procedure: Measurement of Serotonin Re-Uptake
In order to carry out these in vitro studies, synaptosomes were freshly isolated from areas of rats' brains. In each case, what is known as a “P2” fraction, which was prepared in accordance with Gray and Whittaker's directions (E. G. Gray and V. P. Whittaker (1962) J. Anat. 76, 79-88), was used. For the 5HT-e, uptake these vesicular particles were isolated from the medulla+pons region of male rats' brains.
A detailed description of the method can be found in the literature (M. Ch. Frink, H.-H. Hennies, W. Englberger, M. Haurand and B. Wilffert (1996) Arzneim.-Forsch./Drug Res. 46 (III), 11, 1029-1036).

SMILES	NA-uptake, 10 μM, % inhibition [1]	5-HT-uptake, 10 μM, % inhibition [2]
Cc1onc(-c2ccccc2Cl)c1C(=O)NC1CCC(c2cccc(F)c2)(N(C)C)CC1.Cl (single isomer, unassigned) [Example 119, 3-(2-chlorophenyl)-5-methylisoxazole-4-carboxylic acid [4-dimethyl-amino-4-(3-fluorophenyl)cyclohexyl]amide hydrochloride, polar diastereoisomer]	59%	86%
Cc1onc(-c2ccccc2Cl)c1C(=O)NC1CCC(c2cccc(F)c2)(N(C)C)CC1.Cl (single isomer, unassigned) [Example 118, 3-(2-chlorophenyl)-5-methylisoxazole-4-carboxylic acid [4-dimethyl-amino-4-(3-fluorophenyl)cyclohexyl]amide hydrochloride, non-polar diastereoisomer]		50%
